Data taken from US12577597B2, “Transgenic microorganisms and synthesis of piperazic acid, piperazic acid containing products, and derivatives thereof” (Washington University, priority 2017, dated 2026).

Assays:
[1] = tested on: Streptomyces flaveolus pzbB (sfaC) deletion mutant; type: cell-based
Source text: FIG. 5 is a series of LC/MS spectra showing the detection of sanglifehrin, a Piz—containing compound produced by Streptomyces flaveolus. Four major isobaric isomers of sanglifehrin A detected in WT S. flaveolus fermentation extracts. As expected from the results above, an unmarked gene deletion of pzbB (sfaC) from S. flaveolus abrogates sanglifehrin production.
Data indicating L-Piz successfully penetrates at least one Piz-compound producing actinomycete was obtained, followed by subsequent incorporation into a Piz drug-like compound sanglifehrin (see e.g., FIG. 5). […] Four major isobaric isomers of sanglifehrin A detected in WT S. flaveolus fermentation extracts. As expected from the results in FIG. 5, an unmarked gene deletion of pzbB (sfaC) from S. flaveolus abrogates sanglifehrin production.

[2] = tested on: SfaC-His6 (PzbB); assay: Hemin influence on SfaC (PzbB) N5-OH-L-ornithine in vitro assay, piperazic acid quantified by HPLC/MS; type: biochemical, Streptomyces flaveolus; settings: hemin 10 μM in DMSO vs DMSO alone; SfaC-His6 2 μM; N5-OH-L-orn 1 mM; 50 mM Tris.HCl pH 8.0; aliquots at 30, 60, 90 sec
Chain of SfaC-His6 (PzbB) (as listed by the source): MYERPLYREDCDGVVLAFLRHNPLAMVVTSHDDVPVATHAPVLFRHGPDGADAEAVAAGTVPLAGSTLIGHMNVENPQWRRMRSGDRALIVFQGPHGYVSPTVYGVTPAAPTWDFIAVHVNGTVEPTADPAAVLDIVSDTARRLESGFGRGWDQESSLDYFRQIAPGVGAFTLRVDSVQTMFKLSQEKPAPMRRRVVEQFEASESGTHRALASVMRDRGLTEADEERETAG
Protocol: As expected for a bona fide cofactor, adding hemin increases the rate of turnover.
100 μL of reaction in 50 mM Tris.HCl at pH 8.0 was set up with N^5—OH-L-orn (1 mM), SfaC-His6 (2 μM), and either hemin in DMSO (10 μM) or just DMSO. The two reactions were incubated at […]. Then, 30 μL aliquots were removed at 30, 60, and 90 sec, and combined with 30 μL 6% 5-sulfosalicylic acid. The cloudy mixture was centrifuged, and the supernatant was used for analysis. Sample was analyzed for piperazic acid by HPLC/MS. Analysis was performed using an lmtakt Intrada Amino Acid column (50×3 mm, 3 μm pore size) installed on an Agilent 1260 Infinity HPLC connected to an Agilent 6420 Triple-Quad mass spectrometer using the following method: T=0, 86% B; T=3, 86% B; T=10, 0% B; T=11, 0% B; T=12, 86% B; T=14, 86% B; A: water+100 mM ammonium formate, B: acetonitrile+0.1% formic acid; 0.6 mL/min. An extracted ion count chromatogram at m/z 131.1 (monoisotopic mass of protonated piperazic acid) was used to detect piperazic acid. For quantification, an SRM transition (m/z 131.1=>56.3; source voltage, 86 V; collision energy, 37 V) was monitored, and a standard curve (second order polynomial, R2=0.9996) was generated between 0.1 μM and 100 μM using a chemically synthesized L-piperazic acid dihydrochloride standard. The concentrations in time were plotted, and fitted to a line. […]

| Molecule | toxicity (qualitative) ([1]; 50 μM exogenous L-Piz, S. flaveolus) | cell penetrance ([1]; inferred from restored sanglifehrin production with 50 μM exogenous L-Piz in S. flaveolus) | increase of the slope (rate of reaction, piperazic acid formation) by hemin [2] |
| --- | --- | --- | --- |
| O=C(O)C1CCCNN1 [L-Piz, L-piperazic acid] | qualitatively nontoxic | cell penetrant |  |
| Fe^+3-protoporphryin IX [Hemin] |  |  | 14.4 times |
